In ChEMBL document CHEMBL3414527, “Engineering potent and selective analogues of GpTx-1, a tarantula venom peptide antagonist of the Na(V)1.7 sodium channel” (J Med Chem, 2015):
Bridge positions count the residues as written; N and C are the ends. Peptide text beside a SMILES is read from it.

Legend:
[1] = target: Sodium channel protein type 9 subunit alpha (Homo sapiens, UniProt Q15858); assay: Inhibition of human NaV1.7 at -140 mV holding potential by whole-cell patch clamp assay
[2] = target: Sodium channel protein type 5 subunit alpha (Homo sapiens, UniProt Q14524); assay: Inhibition of human NaV1.5 at -140 mV holding potential by whole-cell patch clamp assay
Chain of Sodium channel protein type 5 subunit alpha (Q14524 whole entry): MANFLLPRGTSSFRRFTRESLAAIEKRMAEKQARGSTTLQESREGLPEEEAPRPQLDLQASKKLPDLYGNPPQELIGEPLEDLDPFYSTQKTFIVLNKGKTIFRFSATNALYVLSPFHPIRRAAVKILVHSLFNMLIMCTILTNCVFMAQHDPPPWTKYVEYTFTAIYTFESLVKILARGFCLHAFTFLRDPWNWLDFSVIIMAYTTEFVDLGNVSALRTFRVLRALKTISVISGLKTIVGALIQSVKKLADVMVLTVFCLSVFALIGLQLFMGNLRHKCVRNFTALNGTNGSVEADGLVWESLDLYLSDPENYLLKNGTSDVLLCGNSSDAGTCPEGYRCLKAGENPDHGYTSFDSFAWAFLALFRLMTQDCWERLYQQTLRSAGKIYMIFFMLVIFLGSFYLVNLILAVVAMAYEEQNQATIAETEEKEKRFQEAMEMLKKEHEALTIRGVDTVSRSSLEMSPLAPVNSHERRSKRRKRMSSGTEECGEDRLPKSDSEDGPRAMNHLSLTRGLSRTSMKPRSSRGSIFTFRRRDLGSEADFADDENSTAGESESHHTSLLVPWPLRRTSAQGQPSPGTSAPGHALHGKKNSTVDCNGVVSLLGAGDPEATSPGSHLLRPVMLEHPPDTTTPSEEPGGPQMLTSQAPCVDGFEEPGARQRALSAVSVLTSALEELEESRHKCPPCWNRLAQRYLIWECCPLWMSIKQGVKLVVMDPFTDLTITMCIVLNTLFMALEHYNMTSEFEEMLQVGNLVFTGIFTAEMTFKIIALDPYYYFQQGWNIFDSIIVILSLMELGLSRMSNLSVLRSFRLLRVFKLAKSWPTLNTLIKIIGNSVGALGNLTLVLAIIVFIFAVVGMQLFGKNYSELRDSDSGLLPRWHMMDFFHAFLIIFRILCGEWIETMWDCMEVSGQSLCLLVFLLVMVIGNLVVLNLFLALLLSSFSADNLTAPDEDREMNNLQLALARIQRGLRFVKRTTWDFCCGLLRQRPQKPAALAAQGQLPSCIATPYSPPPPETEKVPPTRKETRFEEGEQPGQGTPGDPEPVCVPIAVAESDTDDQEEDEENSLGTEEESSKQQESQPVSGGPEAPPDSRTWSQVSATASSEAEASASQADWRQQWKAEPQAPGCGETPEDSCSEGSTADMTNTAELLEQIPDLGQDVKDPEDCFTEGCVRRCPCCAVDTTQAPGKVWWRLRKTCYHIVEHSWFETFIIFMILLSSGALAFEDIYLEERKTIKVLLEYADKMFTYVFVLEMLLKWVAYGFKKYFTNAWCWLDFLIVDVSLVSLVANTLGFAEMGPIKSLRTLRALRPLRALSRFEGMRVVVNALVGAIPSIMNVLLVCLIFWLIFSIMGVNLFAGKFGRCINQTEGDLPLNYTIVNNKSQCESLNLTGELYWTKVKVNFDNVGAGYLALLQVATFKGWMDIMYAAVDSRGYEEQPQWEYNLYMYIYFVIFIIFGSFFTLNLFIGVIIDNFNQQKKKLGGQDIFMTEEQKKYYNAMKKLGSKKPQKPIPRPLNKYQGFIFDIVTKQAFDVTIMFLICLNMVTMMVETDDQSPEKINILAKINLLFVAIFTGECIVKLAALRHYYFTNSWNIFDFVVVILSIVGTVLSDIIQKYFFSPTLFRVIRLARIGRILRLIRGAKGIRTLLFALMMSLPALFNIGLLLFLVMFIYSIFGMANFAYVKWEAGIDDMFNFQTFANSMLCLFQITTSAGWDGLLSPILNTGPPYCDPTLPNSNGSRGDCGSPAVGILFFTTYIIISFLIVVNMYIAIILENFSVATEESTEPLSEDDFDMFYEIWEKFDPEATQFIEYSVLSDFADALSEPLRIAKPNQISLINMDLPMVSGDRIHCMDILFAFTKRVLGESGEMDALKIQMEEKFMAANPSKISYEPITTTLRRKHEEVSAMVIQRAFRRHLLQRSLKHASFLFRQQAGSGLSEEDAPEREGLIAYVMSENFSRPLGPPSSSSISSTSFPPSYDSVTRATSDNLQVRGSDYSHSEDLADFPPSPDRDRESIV

Chain of Sodium channel protein type 9 subunit alpha (Q15858 whole entry): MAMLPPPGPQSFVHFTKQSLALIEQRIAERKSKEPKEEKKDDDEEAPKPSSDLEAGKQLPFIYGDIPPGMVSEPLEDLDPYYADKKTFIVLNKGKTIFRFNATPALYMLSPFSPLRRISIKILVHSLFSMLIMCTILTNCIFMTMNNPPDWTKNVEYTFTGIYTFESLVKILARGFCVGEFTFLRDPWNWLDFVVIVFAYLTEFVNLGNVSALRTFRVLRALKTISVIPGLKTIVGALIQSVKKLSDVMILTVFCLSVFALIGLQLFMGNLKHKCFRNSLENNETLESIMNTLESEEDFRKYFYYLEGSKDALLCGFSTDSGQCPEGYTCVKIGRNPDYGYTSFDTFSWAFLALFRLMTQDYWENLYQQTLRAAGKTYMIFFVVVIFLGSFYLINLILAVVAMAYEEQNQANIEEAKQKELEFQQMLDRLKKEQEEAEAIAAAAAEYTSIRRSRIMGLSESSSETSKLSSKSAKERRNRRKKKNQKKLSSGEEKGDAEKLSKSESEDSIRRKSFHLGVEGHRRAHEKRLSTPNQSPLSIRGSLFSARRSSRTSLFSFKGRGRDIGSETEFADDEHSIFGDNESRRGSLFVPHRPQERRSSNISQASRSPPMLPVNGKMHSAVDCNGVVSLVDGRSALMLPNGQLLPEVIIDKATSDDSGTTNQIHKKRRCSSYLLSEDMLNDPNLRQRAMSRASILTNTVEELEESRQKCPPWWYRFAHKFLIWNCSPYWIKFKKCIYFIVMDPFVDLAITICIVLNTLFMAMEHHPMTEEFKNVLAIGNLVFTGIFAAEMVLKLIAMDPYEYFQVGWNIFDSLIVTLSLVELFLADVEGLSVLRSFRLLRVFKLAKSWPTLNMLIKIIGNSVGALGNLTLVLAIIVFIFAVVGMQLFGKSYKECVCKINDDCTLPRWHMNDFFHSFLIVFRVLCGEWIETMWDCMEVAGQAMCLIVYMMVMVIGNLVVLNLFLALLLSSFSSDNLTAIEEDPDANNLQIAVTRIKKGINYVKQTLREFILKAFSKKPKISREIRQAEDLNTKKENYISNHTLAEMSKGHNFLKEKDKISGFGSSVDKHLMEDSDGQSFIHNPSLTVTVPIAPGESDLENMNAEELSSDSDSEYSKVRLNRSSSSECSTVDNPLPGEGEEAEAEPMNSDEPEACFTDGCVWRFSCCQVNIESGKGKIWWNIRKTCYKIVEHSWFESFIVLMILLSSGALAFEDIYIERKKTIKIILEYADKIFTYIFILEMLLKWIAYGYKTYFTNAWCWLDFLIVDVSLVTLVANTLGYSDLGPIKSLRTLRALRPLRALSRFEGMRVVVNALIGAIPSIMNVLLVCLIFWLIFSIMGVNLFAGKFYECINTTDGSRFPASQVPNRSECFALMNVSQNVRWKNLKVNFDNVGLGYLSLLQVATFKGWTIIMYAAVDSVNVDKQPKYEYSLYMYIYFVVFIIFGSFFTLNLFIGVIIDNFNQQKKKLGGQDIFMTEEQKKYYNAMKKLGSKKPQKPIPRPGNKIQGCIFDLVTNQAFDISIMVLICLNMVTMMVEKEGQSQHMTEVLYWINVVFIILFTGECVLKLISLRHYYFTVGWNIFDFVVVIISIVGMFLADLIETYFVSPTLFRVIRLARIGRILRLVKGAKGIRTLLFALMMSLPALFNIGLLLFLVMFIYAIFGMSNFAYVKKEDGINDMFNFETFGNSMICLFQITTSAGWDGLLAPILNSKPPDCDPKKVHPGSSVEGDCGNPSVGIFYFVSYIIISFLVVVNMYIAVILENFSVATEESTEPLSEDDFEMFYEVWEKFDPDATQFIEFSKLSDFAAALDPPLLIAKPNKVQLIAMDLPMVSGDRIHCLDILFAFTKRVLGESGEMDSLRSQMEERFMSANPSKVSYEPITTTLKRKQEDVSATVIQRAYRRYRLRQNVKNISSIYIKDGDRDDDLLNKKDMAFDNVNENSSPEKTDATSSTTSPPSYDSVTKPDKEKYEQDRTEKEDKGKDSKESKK

Structure (SMILES) | IC50 [1] [nM] | IC50 [2] [µM]
CC[C@H](C)[C@@H]1NC(=O)[C@@H]2CSSC[C@@H]3NC(=O)[C@H](C(C)C)NC(=O)[C@H](CC(C)C)NC(=O)[C@H](CC(N)=O)NC(=O)[C@@H]4CCCN4C(=O)[C@H](CCCNC(=N)N)NC(=O)[C@H](CSSC[C@H](NC(=O)[C@@H](N)CC(=O)O)C(=O)N[C@@H](CC(C)C)C(=O)NCC(=O)N[C@@H](Cc4ccccc4)C(=O)N[C@@H](Cc4cccc5ccccc45)C(=O)N[C@@H](CCCNC(=N)N)C(=O)N[C@@H](CCCCN)C(=O)N2)NC(=O)[C@H](CSSC[C@@H](C(=O)N[C@@H](CCCCN)C(=O)N[C@@H](Cc2ccc(O)cc2)C(=O)N[C@H](C(=O)N[C@@H](Cc2ccccc2)C(N)=O)C(C)C)NC(=O)[C@H](Cc2c[nH]c4ccccc24)NC(=O)[C@H](CCCCN)NC(=O)[C@H](Cc2cnc[nH]2)NC(=O)[C@H]([C@@H](C)O)NC(=O)[C@H](CCCNC(=N)N)NC(=O)[C@H](CO)NC3=O)NC(=O)[C@H](CCCCN)NC(=O)[C@H](CC(=O)O)NC(=O)[C@H](CC(N)=O)NC(=O)[C@H](CC(=O)O)NC(=O)[C@@H]2CCCN2C1=O | 4 | 0.4
CC[C@H](C)[C@@H]1NC(=O)[C@@H]2CSSC[C@@H]3NC(=O)[C@H](C(C)C)NC(=O)[C@H](CC(C)C)NC(=O)[C@H](CC(N)=O)NC(=O)[C@@H]4CCCN4C(=O)[C@H](CCCNC(=N)N)NC(=O)[C@H](CSSC[C@H](NC(=O)[C@@H](N)CC(=O)O)C(=O)N[C@@H](CC(C)C)C(=O)NCC(=O)N[C@@H](C(C)C)C(=O)N[C@@H](CCSC)C(=O)N[C@@H](CCCNC(=N)N)C(=O)N[C@@H](CCCCN)C(=O)N2)NC(=O)[C@H](CSSC[C@@H](C(=O)N[C@@H](CCCCN)C(=O)N[C@@H](Cc2ccc(O)cc2)C(=O)N[C@H](C(=O)N[C@@H](Cc2ccccc2)C(N)=O)C(C)C)NC(=O)[C@H](Cc2c[nH]c4ccccc24)NC(=O)[C@H](CCCCN)NC(=O)[C@H](Cc2cnc[nH]2)NC(=O)[C@H]([C@@H](C)O)NC(=O)[C@H](CCCNC(=N)N)NC(=O)[C@H](CO)NC3=O)NC(=O)[C@H](CCCCN)NC(=O)[C@H](CC(=O)O)NC(=O)[C@H](CC(N)=O)NC(=O)[C@H](CC(=O)O)NC(=O)[C@@H]2CCCN2C1=O (H-DCLGVMRKCIPDNDKCCRPNLVCSRTHKWCKYVF-NH2; disulfide 2-17, 9-23, 16-30) | 19 | > 10
CC[C@H](C)[C@@H]1NC(=O)[C@@H]2CSSC[C@@H]3NC(=O)[C@H](C(C)C)NC(=O)[C@H](CC(C)C)NC(=O)[C@H](CC(N)=O)NC(=O)[C@@H]4CCCN4C(=O)[C@H](CCCNC(=N)N)NC(=O)[C@H](CSSC[C@H](NC(=O)[C@@H](N)CC(=O)O)C(=O)N[C@@H](CC(C)C)C(=O)NCC(=O)N[C@@H](C4CCCCC4)C(=O)N[C@@H](CCSC)C(=O)N[C@@H](CCCNC(=N)N)C(=O)N[C@@H](CCCCN)C(=O)N2)NC(=O)[C@H](CSSC[C@@H](C(=O)N[C@@H](CCCCN)C(=O)N[C@@H](Cc2ccc(O)cc2)C(=O)N[C@H](C(=O)N[C@@H](Cc2ccccc2)C(N)=O)C(C)C)NC(=O)[C@H](Cc2c[nH]c4ccccc24)NC(=O)[C@H](CCCCN)NC(=O)[C@H](Cc2cnc[nH]2)NC(=O)[C@H]([C@@H](C)O)NC(=O)[C@H](CCCNC(=N)N)NC(=O)[C@H](CO)NC3=O)NC(=O)[C@H](CCCCN)NC(=O)[C@H](CC(=O)O)NC(=O)[C@H](CC(N)=O)NC(=O)[C@H](CC(=O)O)NC(=O)[C@@H]2CCCN2C1=O | 6 | > 10
CC[C@H](C)[C@@H]1NC(=O)[C@@H]2CSSC[C@@H]3NC(=O)[C@H](C(C)C)NC(=O)[C@H](CC(C)C)NC(=O)[C@H](CC(N)=O)NC(=O)[C@@H]4CCCN4C(=O)[C@H](CCCNC(=N)N)NC(=O)[C@H](CSSC[C@H](NC(=O)[C@@H](N)CC(=O)O)C(=O)N[C@@H](CC(C)C)C(=O)NCC(=O)N[C@@H](Cc4ccc(-c5ccccc5)cc4)C(=O)N[C@@H](CCSC)C(=O)N[C@@H](CCCNC(=N)N)C(=O)N[C@@H](CCCCN)C(=O)N2)NC(=O)[C@H](CSSC[C@@H](C(=O)N[C@@H](CCCCN)C(=O)N[C@@H](Cc2ccc(O)cc2)C(=O)N[C@H](C(=O)N[C@@H](Cc2ccccc2)C(N)=O)C(C)C)NC(=O)[C@H](Cc2c[nH]c4ccccc24)NC(=O)[C@H](CCCCN)NC(=O)[C@H](Cc2cnc[nH]2)NC(=O)[C@H]([C@@H](C)O)NC(=O)[C@H](CCCNC(=N)N)NC(=O)[C@H](CO)NC3=O)NC(=O)[C@H](CCCCN)NC(=O)[C@H](CC(=O)O)NC(=O)[C@H](CC(N)=O)NC(=O)[C@H](CC(=O)O)NC(=O)[C@@H]2CCCN2C1=O | 86 | 
CC[C@H](C)[C@@H]1NC(=O)[C@@H]2CSSC[C@@H]3NC(=O)[C@H](C(C)C)NC(=O)[C@H](CC(C)C)NC(=O)[C@H](CC(N)=O)NC(=O)[C@@H]4CCCN4C(=O)[C@H](CCCNC(=N)N)NC(=O)[C@H](CSSC[C@H](NC(=O)[C@@H](N)CC(=O)O)C(=O)N[C@@H](CC(C)C)C(=O)NCC(=O)N[C@@H](Cc4ccccc4)C(=O)N[C@@H](CCSC)C(=O)N[C@@H](CCCNC(=N)N)C(=O)N[C@@H](CCCCN)C(=O)N2)NC(=O)[C@H](CSSC[C@@H](C(=O)N[C@@H](CCCCN)C(=O)N[C@@H](Cc2ccc(O)cc2)C(=O)N[C@H](C(=O)N[C@@H](Cc2ccccc2)C(N)=O)C(C)C)NC(=O)[C@H](Cc2c[nH]c4ccccc24)NC(=O)[C@H](CCCNC(=N)N)NC(=O)[C@H](Cc2cnc[nH]2)NC(=O)[C@H]([C@@H](C)O)NC(=O)[C@H](CCCNC(=N)N)NC(=O)[C@H](CO)NC3=O)NC(=O)[C@H](CCCCN)NC(=O)[C@H](CC(=O)O)NC(=O)[C@H](CC(N)=O)NC(=O)[C@H](CC(=O)O)NC(=O)[C@@H]2CCCN2C1=O | 8 | 
CC[C@H](C)[C@@H]1NC(=O)[C@@H]2CSSC[C@@H]3NC(=O)[C@H](C(C)C)NC(=O)[C@H](CC(C)C)NC(=O)[C@H](CC(N)=O)NC(=O)[C@@H]4CCCN4C(=O)[C@H](CCCNC(=N)N)NC(=O)[C@H](CSSC[C@H](NC(=O)[C@@H](N)CC(=O)O)C(=O)N[C@@H](CC(C)C)C(=O)NCC(=O)N[C@@H](Cc4ccccc4)C(=O)N[C@@H](CCSC)C(=O)N[C@@H](CCCNC(=N)N)C(=O)N[C@@H](CCCCN)C(=O)N2)NC(=O)[C@H](CSSC[C@@H](C(=O)N[C@@H](CCCCN)C(=O)N[C@@H](Cc2ccc(O)cc2)C(=O)N[C@H](C(=O)N[C@@H](Cc2ccccc2)C(N)=O)C(C)C)NC(=O)[C@H](Cc2c[nH]c4ccccc24)NC(=O)[C@H](CCCCN)NC(=O)[C@H](Cc2cnc[nH]2)NC(=O)[C@H](Cc2cnc[nH]2)NC(=O)[C@H](CCCNC(=N)N)NC(=O)[C@H](CO)NC3=O)NC(=O)[C@H](CCCCN)NC(=O)[C@H](CC(=O)O)NC(=O)[C@H](CC(N)=O)NC(=O)[C@H](CC(=O)O)NC(=O)[C@@H]2CCCN2C1=O (H-DCLGFMRKCIPDNDKCCRPNLVCSRHHKWCKYVF-NH2; disulfide 2-17, 9-23, 16-30) | 4 | 
